What is called Ki is a measure of affinity in units of concentration, obtained from inhibition or displacement.

We go through twelve compounds from BindingDB's records for PubMed 11408610 (Virginia Commonwealth University, 2001).

The target of the assay is Cannabinoid receptor 1 (Rattus norvegicus, UniProt P20272).
Chain of Cannabinoid receptor 1 (P20272 whole entry): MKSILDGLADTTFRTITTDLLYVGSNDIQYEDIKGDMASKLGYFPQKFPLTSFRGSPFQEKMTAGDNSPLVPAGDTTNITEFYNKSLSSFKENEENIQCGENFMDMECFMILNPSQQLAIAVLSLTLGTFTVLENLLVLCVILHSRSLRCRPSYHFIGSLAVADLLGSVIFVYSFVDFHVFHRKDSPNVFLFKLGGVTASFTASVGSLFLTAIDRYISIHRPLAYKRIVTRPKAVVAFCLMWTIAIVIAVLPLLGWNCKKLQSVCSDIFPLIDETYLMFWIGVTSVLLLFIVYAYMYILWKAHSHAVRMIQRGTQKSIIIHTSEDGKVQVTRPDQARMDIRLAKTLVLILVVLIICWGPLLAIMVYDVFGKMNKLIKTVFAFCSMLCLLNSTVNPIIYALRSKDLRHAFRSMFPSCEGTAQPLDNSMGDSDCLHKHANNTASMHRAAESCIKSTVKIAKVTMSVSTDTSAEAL

Take `CCCCC/C=C/C/C=C/C/C=C/C/C=C/CCC(C)C(=O)NCCO` (configuration not stated) [(5Z,8Z,11Z,14Z)-2-Methyl-N-(2-hydroxyethyl)-5,8,11,14-icosatetrenamide]: the Ki stood at 53 nM. Regarding `CCCCC/C=C/C/C=C/C/C=C/C/C=C/CCC(C)(C)C(=O)NCCO` [2-dimethyl-anandamide], the Ki was found to be 47 nM.

As to `CCCCCCCn1ccc(C(=O)c2cccc3ccccc23)c1` [JWH-036], the Ki turned out to be 309 nM. For `CCCCCCC(C)(C)c1cc(O)c2c(c1)OC(C)(C)[C@@H]1CC=C(CO)CC21` (stereo partly drawn) [(R)-3-(1,1-Dimethyl-heptyl)-9-hydroxymethyl-6,6-dimethyl-6a,7,10,10a-tetrahydro-6H-benzo[c]chromen-1-ol], the affinity, expressed as Ki, was 0.73 nM. Compound `CCCn1ccc(C(=O)c2cccc3ccccc23)c1` [JWH-032] gave a Ki of more than 10000 nM. The compound `Cn1ccc(C(=O)c2cccc3ccccc23)c1` [JWH-044] yielded a Ki of more than 10000 nM. Then `CCCCn1cc(C(=O)c2cccc3ccccc23)c2ccccc21` [1-Naphthyl(1-butyl-1H-indole-3-yl)methanone], with 8.9 nM; and `CCn1ccc(C(=O)c2cccc3ccccc23)c1` [JWH-045], with more than 10000 nM; and `CCCCCCn1ccc(C(=O)c2cccc3ccccc23)c1` [CAS_162934-74-9], with 399 nM.

Turning to `CCCCC/C=C/C/C=C/C/C=C/C/C=C/CCC(C)C(=O)NCCF` (configuration not stated) [(5Z,8Z,11Z,14Z)-N-(2-Fluoroethyl)-2-methyl-5,8,11,14-icosatetrenamide], affinity was put at a Ki of 5.7 nM.

`CCCCCc1cc(O)c2c(c1)OC(C)(C)c1ccc(C)cc1-2` [6,6,9-Trimethyl-3-pentyl-6H-benzo[c]chromen-1-ol(Cannabinol)] returned an inhibitory constant (Ki) of 308 nM. Then `CCCCCn1ccc(C(=O)c2cccc3ccccc23)c1`, with 87 nM.
